Source: US9206129B2, “Agent for treatment of eye diseases” (Daito Chemix Corporation, priority 2010, dated 2015)
Counter-ions that a name gives are not always drawn.

How the values were obtained:
[1] = tested on: DBA/2J mice; experiment: Intraocular pressure in DBA/2J mice (TonoLab tonometer); assay type: in vivo, mouse; settings: 50 mg/kg/day orally
Procedure: As a model of secondary angle-closure glaucoma, the DBA/2J mice (Anderson, M. G. et al; BMC Genetics (2001)) were employed. The mice were administered orally with 50 mg/kg/day of the compound of Synthetic Example 32 or 53 (Compound 32 or 53, respectively) daily after two months of age. The tomographs of retinae (n=22 to 32 eyes) were obtained in the 6, 7, 8, 9 and 10-month-old mice with the optical coherence tomography (OCT) (Multiline OCT, Heidelberg Engineering) (FIGS. 1 and 2: The OCT images of the retinae of the 8-month-old mice, FIG. 3: The evaluation of the optic nerve cupping in the 7 to 10-month-old mice). The mice in the control group were administered orally with the physiological saline. The eyeballs were enucleated at 10 months of age, and retinae were observed after hematoxylin-eosin (HE) staining (FIG. 4: The micrographs of retinae of the […] mice after HE staining). The thickness of the inner retinal layers and the nerve fiber layers was determined from the OCT images (FIG. 5: The thickness of the nerve fiber layers of the 7-month-old mice; FIG. 6: The thickness of the inner retinal layers of the 8-month-old mice; FIG. 7: The time course of the thickness of the inner retinal layers). The thickness of the inner retinal layer is a sum of the thickness of the nerve fiber and ganglion neuron layer and the inner plexiform layer.
Besides, the intraocular pressure was measured with TonoLab (M. E. Technica) tonometer under general anesthesia monthly from 2 months of age. The mean intraocular pressure at 4, 5, 6, 7 and 8 months of age was 13.6, 14.0, 11.3, 16.3 and 12.8 mmHg in the control group administered with the physiological saline, 13.0, 15.6, 12.0, 12.3 and 14.4 mmHg in the group administered with Compound 32, 14.6, 16.0, 12.8, 13.0 and 14.4 mmHg in the group administered with Compound 53.

[2] = tested on: rd10 mice; experiment: rd10 mice, model of retinitis pigmentosa: OCT, electroretinogram, HE-stained retinae; assay type: in vivo, mouse; settings: 33-day-old rd10 mice, 50 mg/kg/day intraperitoneally
Procedure: As a model of retinitis pigmentosa, the rd10 mice (B6.CXB1-Pde6b^rd10/J (purchased from Jackson Laboratory (Bar Harbor, Me.), Chang B. et al; Vision Res (2007)) were employed. In the mouse model, the rod photoreceptors are completely disappeared within 2 months after birth. The mice were administered intraperitoneally with 50 mg/kg/day of the compound of Synthetic Example 32 or 53 (Compound 32 or 53, respectively) daily from 7 days of age. The tomographs of the retinae were obtained in the 21, 25, 29 and 33-day-old mice with the optical coherence tomography (OCT) (FIGS. 15 and 17: The OCT images of the mice administered with Compound 32 at 25 and 29 days of age; FIGS. 19 and 21: The OCT images of the mice administered with Compound 53 at 25 and 29 days of age). The 21-, 25-, 29- and 33-day-old mice were subjected to dark adaptation and given 3.0 cd/s/m^2 of photic stimulations via a LED-type corneal-contact electrode (Mayo) by LS-W (Mayo). The electroretinogram (ERG) was recorded and analyzed with PowerLab 2/25 (AD Instruments, New South Wales, Australia) to measure the b-wave amplitudes (N=27-37 eyes) (FIGS. 16, 18, 24: The ERG of the 25-, 29- and 33-day-old mice administered with Compound 32; FIGS. 20, 22, 26: The ERG of the 25-, 29- and 33-day-old mice administered with Compound 53). The mice in the control group were administered orally with the physiological saline. […]

[3] = target: Mouse VCP (Mus musculus (Mouse), UniProt Q01853); experiment: VCP ATPase inhibitory activity; assay type: biochemical; settings: ATPase activity of purified VCP, 100 μM [γ-32P]ATP, 37° C., 10 minutes
Procedure: Mouse VCP cDNA (the amino acid sequence is completely identical among mouse, rat and human) is added with a DNA sequence corresponding to a histidine tag at the amino-terminal, subcloned into a baculovirus vector pVL1392 (BD Bioscience), and expressed in Sf-9 insect cells. The protein is purified with a nickel column. After the purification the concentration of the protein is adjusted to […] and the protein is stored in a solution containing 50 mM TrisCl pH 8.0, 5 mM EDTA, 10% glycerol, and 15 mM DTT at 4° C. […] The enzyme reaction is stopped with addition of 200 μL of an ice-cold solution containing 7% TCA and 1 mM K2HPO4. […] The reaction tube is centrifuged for 5 minutes at 20,000 g to separate the aqueous layer and the organic layer, 200 μL of the organic layer is taken, and the beta ray radiated from the liberated phosphate is quantified with liquid scintillation counter. By measuring the ATPase activity in the presence of the test substance at various concentrations, ATPase inhibitory activity of the test substance is measured. […]
The ATPase activity was determined as follows. […]
By measuring the ATPase activity in the presence of the test substance at various concentrations, ATPase inhibitory activity of the test substance was measured. […]

Sequence of Mouse VCP (Q01853 whole entry): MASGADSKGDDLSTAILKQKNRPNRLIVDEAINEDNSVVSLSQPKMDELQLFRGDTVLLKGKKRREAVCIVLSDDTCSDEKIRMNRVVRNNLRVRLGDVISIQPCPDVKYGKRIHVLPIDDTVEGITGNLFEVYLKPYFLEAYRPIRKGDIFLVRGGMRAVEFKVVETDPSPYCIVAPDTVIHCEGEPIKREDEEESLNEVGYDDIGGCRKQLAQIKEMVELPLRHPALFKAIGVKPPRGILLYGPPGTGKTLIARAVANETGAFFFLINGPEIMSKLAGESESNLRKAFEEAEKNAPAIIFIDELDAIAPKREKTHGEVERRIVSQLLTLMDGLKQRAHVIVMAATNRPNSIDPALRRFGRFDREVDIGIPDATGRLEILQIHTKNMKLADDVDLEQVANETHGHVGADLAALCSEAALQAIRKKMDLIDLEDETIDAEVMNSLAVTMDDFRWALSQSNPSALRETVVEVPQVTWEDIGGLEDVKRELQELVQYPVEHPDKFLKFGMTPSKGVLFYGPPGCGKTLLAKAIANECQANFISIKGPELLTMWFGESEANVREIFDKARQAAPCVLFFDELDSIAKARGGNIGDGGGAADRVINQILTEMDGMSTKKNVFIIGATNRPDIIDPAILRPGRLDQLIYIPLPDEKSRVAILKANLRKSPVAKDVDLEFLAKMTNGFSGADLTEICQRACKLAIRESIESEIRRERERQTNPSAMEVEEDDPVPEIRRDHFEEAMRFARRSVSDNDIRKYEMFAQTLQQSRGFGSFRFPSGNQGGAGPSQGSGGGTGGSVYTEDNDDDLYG

SMILES | mean intraocular pressure ([1]; 4 months of age) | mean intraocular pressure ([1]; 5 months of age) | mean intraocular pressure ([1]; 6 months of age) | mean intraocular pressure ([1]; 7 months of age) | mean intraocular pressure ([1]; 8 months of age) | layers of the photoreceptor cells in the retinal section [2] | IC50 [3]
Cc1cc(F)ccc1-c1ccc(/N=N/c2cc(S(=O)(=O)[O-])c3ccccc3c2N)cn1.[Na+] [Example 32, 4-amino-3-[6-(4-fluoro-2-methylphenyl)pyridine-3-ylazo]naphthalene-1-sulfonic acid sodium salt] | 13.0 mmHg | 15.6 mmHg | 12.0 mmHg | 12.3 mmHg | 14.4 mmHg | 4 to 5 layers | –
Nc1c(/N=N/c2ccc(-c3ccccc3OCCCC(=O)O)nc2)cc(S(=O)(=O)O)c2ccccc12 [Example 43, 4-{2-[5-(1-amino-4-sulfonaphthalene-2-ylazo)pyridine-2-yl]phenoxy}butyric acid disodium salt] | – | – | – | – | – | – | 0.378 µM
CCCCOc1c(C=O)cc(C)cc1-c1ccc(/N=N/c2cc(S(=O)(=O)[O-])c3ccccc3c2N)cn1.[Na+] [Example 53, 4-amino-3-[6-(3-formyl-2-butoxy-5-methylphenyl)pyridine-3-ylazo]naphthalene-1-sulfonic acid sodium salt] | 14.6 mmHg | 16.0 mmHg | 12.8 mmHg | 13.0 mmHg | 14.4 mmHg | 4 to 5 layers | –
